How the values were obtained:
iNOS transcription = test: LPS-stimulated iNOS mRNA transcription in peritoneal macrophages (qPCR); format: cell-based, mouse; details: 100 ng/mL LPS, 6 h
Protocol: (§1) qPCR was performed using SYBR green master mix (Takara, Japan) on a Realplex Mastercycler real-time PCR system (Eppendorf, Germany) according to the manufacturer’s instruction. The gene transcription levels were normalized to GAPDH or β-actinas as illustrated in figure legends and calculated by ΔΔCt method. The accuracy of qPCR results were checked by melting curve analysis. qPCR primers were listed in Additional file 1: Table S1.
(§2) Cells were incubated with peptides (0, 5, 10, and 20 μg/mL) in the presence or absence of LPS (100 ng/mL, from Escherichia coli 0111:B4, Sigma-Aldrich, USA). After 6-h incubation, cells in one plate were washed twice with ice-cold PBS and lysed by Trizol reagent (Life Tech, USA) for total RNA extraction. PrimeScript® Reverse Transcriptase Kit (Takara, Japan) was used to synthesize cDNA for qPCR to examine the transcription levels of inducible nitric oxide synthase (iNOS), which is necessary for NO production. After 24-h incubation, culture medium of each wells of another plate was harvested for nitrite detection, which indirectly reflected the NO production. Nitrite accumulation levels were determined by NO detection kit (Beyotime, China) following the kit instruction.

nitrite production = test: LPS-stimulated nitrite (NO) production in peritoneal macrophages; format: cell-based, mouse; details: 100 ng/mL LPS, 24 h
Protocol: as §2

[1] = LPS neutralization, chromogenic end-point TAL assay; format: biochemical; details: LPS 1 μg/mL, 37 °C, 30 min
Protocol: Fluorescein isothiocyanate (FITC)-conjugated LPS (1 μg/mL, Sigma-Aldrich, USA) was excited at 480 nm and monitored the changes in the emission of FITC-LPS at 515 nm in the incubation of different concentrations of peptides (0, 12.5, 25, 50, 100 μg/mL). Peptides were dissolved in 10 mM phosphate buffer at pH 6.0. The interactions between peptides and LPS were further assessed by a quantitative Chromogenic End-point Tachypleus amebocyte lysate (TAL) assay kit (Xiamen Houshiji, China) following the kit instruction. Briefly, different concentrations of peptides (0, 12.5, 25, 50, 100 μg/mL) were incubated with LPS (1 μg/mL, Sigma-Aldrich, USA) at 37 °C for 30 min. After incubation, 100 μL TAL solution was added to 100 μL LPS-peptide mixtures in a pyrogen-free tube and incubated at 37 °C for 10 min. Then, LPS-peptide mixtures were added with pre-warmed substrate solution for additional 6-min incubation at 37 °C. Lastly, the absorbance at 545 nm was measured on a microplate reader (Epoch Etock, BioTek, USA). The percentages of LPS-neutralizing activity were calculated.

IL-1β transcription = test: LPS-stimulated IL-1β transcription in peritoneal macrophages (qPCR); format: cell-based, mouse; details: 20 μg/mL peptide, 100 ng/mL LPS, 6 h
Protocol: as §1
(§3) Cells were incubated with peptides (0, 5, 10, and 20 μg/mL) with or without 100 ng/mL LPS (from E. coli 0111:B4, Sigma-Aldrich, USA) for 6 h. After treatment, culture medium was collected for TNF-α, IL-1β and IL-6 quantification using enzyme-linked immunosorbent assay (ELISA) kits (Dakewei, China). Cells were washed with ice-cold PBS and lysed by Trizol reagent (Life Tech, USA). Total RNA was extracted for cDNA synthesis to quantify TNF-α, IL-1β and IL-6 transcription levels by qPCR as described in qPCR section.

[2] = tested on: mouse peritoneal macrophages; details: CCK-8, 24 h, concentration as high as 200 μg/mL
Protocol: (§4) Mouse peritoneal macrophages were prepared according to previous method. Brewer thioglycollate medium (3 %, w/v, Sigma-Aldrich, USA) was intraperitoneally injected to C57BL/6 mouse. After 3 days, the mouse was euthanized and intraperitoneally injected with 20 mL RPMI-1640 medium to collect peritoneal macrophages. RAW264.7 cells were cultured in RPMI 1640 medium (10 % FBS, 100 U/mL penicillin and 100 μg/mL streptomycin, Gibco, USA) at 37 °C humidified with 5 % CO2. Mouse macrophages, peritoneal macrophages and RAW264.7 cells, were seeded in a 96-well (2 × 10^4 cells/well) plate, and cultured in RPMI 1640 medium (100 μL) supplemented with 2 % FBS, 100 U/mL penicillin and 100 μg/mL streptomycin (Gibco, USA) at 37 °C in a humidified 5 % CO2 incubator. The cytotoxicity of cecropin-TY1 against mouse macrophages was determined by Cell Counting Kit-8 assay (CCK-8) following the kit instruction. In brief, serial 2-fold peptide dilutions were added to each well, and control wells received the same volume of phosphate-buffered solution (PBS, 8 g/L NaCl, 0.2 g/L KCl, 0.2 g/L KH2PO4, 2.89 g/L Na2HPO4 · 12H2O, pH 7.4). After 24-h incubation, CCK-8 solution (10 μL/well) was added and incubated for an additional 4 h. The absorbance at 450 nm was monitored on a microplate reader (Epoch Etock, BioTek, USA).

RAW264.7 cells = details: CCK-8, 24 h, concentration as high as 200 μg/mL
Protocol: as §4

TNF-α transcription = test: LPS-stimulated TNF-α transcription in peritoneal macrophages (qPCR); format: cell-based, mouse; details: 20 μg/mL peptide, 100 ng/mL LPS, 6 h
Protocol: as §1, §3

## GWLKKIGKKIERVGQNVRNAAISTLPIAQGAAGVAGALN-NH2 [cecropin-TY1, cecropin antimicrobial peptide from salivary glands of horsefly Tabanus yao, 39 residues, C-terminally amidated, synthesized]
iNOS transcription; 5 μg/mL peptide
  attenuation of LPS-activated iNOS transcription: 58.8%
iNOS transcription; 10 μg/mL peptide
  attenuation of LPS-activated iNOS transcription: 68.7%
iNOS transcription; 20 μg/mL peptide
  attenuation of LPS-activated iNOS transcription: 84.2%
Nitrite production; 5 μg/mL peptide
  attenuation of LPS-induced nitrite production: about 40.0%
Nitrite production; 10 μg/mL peptide
  attenuation of LPS-induced nitrite production: ~63.7%
Nitrite production; 20 μg/mL peptide
  attenuation of LPS-induced nitrite production: ~75.0%
[1]; 12.5 μg/mL peptide
  LPS neutralized: 28.8%
[1]; 25 μg/mL peptide
  LPS neutralized: 41.3%
[1]; 50 μg/mL peptide
  LPS neutralized: 47.9%
[1]; 100 μg/mL peptide
  LPS neutralized: 65.1%
IL-1β transcription
  attenuation of LPS-stimulated IL-1β transcription: 67.5%
[2]
  cytotoxicity (cell viability): didn’t show any cytotoxicity
RAW264.7 cells
  cytotoxicity (cell viability): didn’t show any cytotoxicity
TNF-α transcription
  attenuation of LPS-stimulated TNF-α transcription: 60.3%

Source: article PMC4619319, “A potent anti-inflammatory peptide from the salivary glands of horsefly” (Parasites & Vectors, 2015)
